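Where inhibition never reached the appropriate level, the endpoint shown equals the highest concentration tested. Otherwise, values were interpolated linearly from a five-concentration, 48-hour dose response in 96-well plates. GI50: concentration for 50% inhibition of growth. TGI denotes the concentration required for complete inhibition of growth.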
What was measured:
Assay in all cases: NCI-60 cell line screen, 48 h
[1] = tested on: 786-0 renal
[2] = tested on: A498 renal
[3] = tested on: HCT-116 colon
[4] = tested on: HOP-92 NSCLC
[5] = tested on: IGROV1 ovarian
[6] = tested on: KM12 colon
[7] = tested on: MDA-MB-435
[8] = tested on: MDA-N
[9] = tested on: MOLT-4 leukemia
[10] = tested on: NCI-H226 lung
[11] = tested on: OVCAR-4 ovarian
[12] = tested on: OVCAR-8 ovarian
[13] = tested on: RXF 393 renal
[14] = tested on: SF-539 CNS
[15] = tested on: SK-MEL-2 melanoma
[16] = tested on: SNB-19 CNS
[17] = tested on: SNB-75 CNS
[18] = tested on: SW-620 colon
[19] = tested on: T-47D breast
[20] = tested on: UACC-257 melanoma
[21] = tested on: UACC-62 melanoma
[22] = tested on: A549 NSCLC
[23] = tested on: ACHN renal
[24] = tested on: BT-549 breast
[25] = tested on: CAKI-1 renal
[26] = tested on: CCRF-CEM leukemia
[27] = tested on: COLO 205 colon
[28] = tested on: DU-145 prostate
[29] = tested on: EKVX NSCLC
[30] = tested on: HCC-2998 colon
[31] = tested on: HCT-15 colon
[32] = tested on: HL-60(TB) leukemia
[33] = tested on: HOP-62 NSCLC
[34] = tested on: HS 578T breast
[35] = tested on: HT29 colon
[36] = tested on: K-562 leukemia
[37] = tested on: LOX IMVI melanoma
[38] = tested on: M14 melanoma
[39] = tested on: MALME-3M melanoma
[40] = tested on: MCF7 breast
[41] = tested on: MDA-MB-231 breast
[42] = tested on: NCI-H23 lung
[43] = tested on: NCI-H460 lung
[44] = tested on: NCI-H522 lung
[45] = tested on: NCI/ADR-RES ovarian
[46] = tested on: OVCAR-3 ovarian
[47] = tested on: OVCAR-5 ovarian
[48] = tested on: PC-3 prostate
[49] = tested on: RPMI-8226 leukemia
[50] = tested on: SF-268 CNS
[51] = tested on: SF-295 CNS
[52] = tested on: SK-MEL-28 melanoma
[53] = tested on: SK-MEL-5 melanoma
[54] = tested on: SK-OV-3 ovarian
[55] = tested on: SN12C renal
[56] = tested on: SR leukemia
[57] = tested on: TK-10 renal
[58] = tested on: U251 CNS
[59] = tested on: UO-31 renal

For `CNc1ccc(C(=O)CC(O)CCC(C)C2OC(=O)CC(O)CC(=O)CC(O)CC(O)CC(O)CC(O)CC3(O)CC(O)C(C(=O)NCCN4CCOCC4)C(CC(OC4OC(C)C(O)C(N)C4O)/C=C/C=C/C=C/C=C\C=C/C=C/C=C/C2C)O3)cc1` (configuration not stated), the TGI [1] was greater than 100 µM, the TGI [2] was 0.8 µM and the TGI [3] was greater than 100000 nM. The TGI [4] was greater than 100 µM, the TGI [5] was greater than 100 µM and the TGI [6] was greater than 100 µM. For the same molecule, the TGI [7] was greater than 100 µM, the TGI [8] was greater than 100 µM and the TGI [9] was greater than 100 µM. It also gave a TGI [10] greater than 100 µM, a TGI [11] greater than 100 µM and a TGI [12] of 36.8 µM. The TGI [13] was greater than 100 µM, the TGI [14] was greater than 100 µM and the TGI [15] was 79.1 µM. The TGI [16] was greater than 100 µM, the TGI [17] was greater than 100 µM and the TGI [18] was greater than 100 µM. The TGI [19] was greater than 100 µM, the TGI [20] was 1.94 µM and the TGI [21] was greater than 100 µM.
In the case of `Cc1cnc(CNC(=O)c2c(=O)c3ccc(N4CCCN(C)CC4)nc3n3c2sc2ccccc23)cn1`, the GI50 [1] is reported as 6.17 µM, the TGI [1] is reported as 22.7 µM and the GI50 [2] is reported as 12.2 µM. It also gave a TGI [2] of 25.2 µM, a GI50 [22] of 330 nM and a TGI [22] of 7.23 µM. It also gave a GI50 [23] of 305 nM, a TGI [23] of 14.9 µM and a GI50 [24] of 12.6 µM. It also gave a TGI [24] of 28.4 µM, a GI50 [25] of 2490 nM and a TGI [25] of 18 µM. The GI50 [26] was 1960 nM, the TGI [26] was 19.9 µM and the GI50 [27] was 1070 nM. It also gave a TGI [27] of 22.8 µM, a GI50 [28] of 1030 nM and a TGI [28] of 6.29 µM. For the same molecule, the GI50 [29] was 9.14 µM, the TGI [29] was 23.2 µM and the GI50 [30] was 2720 nM. For the same molecule, the TGI [30] was 21.3 µM, the GI50 [3] was 806 nM and the TGI [3] was 2760 nM. It also gave a GI50 [31] of 1030 nM, a TGI [31] of 7.31 µM and a GI50 [32] of 11.2 µM. The TGI [32] was 31.3 µM, the GI50 [33] was 7.16 µM and the TGI [33] was 25.4 µM. The GI50 [4] was 16.4 µM, the TGI [4] was 32.2 µM and the GI50 [34] was 16.6 µM. The TGI [34] was 47.4 µM, the GI50 [35] was 1430 nM and the TGI [35] was 19 µM. The GI50 [5] was 1890 nM, the TGI [5] was 22.2 µM and the GI50 [36] was 1820 nM. For the same molecule, the TGI [36] was 10.6 µM, the GI50 [6] was 1500 nM and the TGI [6] was 10.1 µM. It also gave a GI50 [37] of 331 nM, a TGI [37] of 2050 nM and a GI50 [38] of 6.49 µM. For the same molecule, the TGI [38] was 23 µM, the GI50 [39] was 9.24 µM and the TGI [39] was 25.8 µM. The GI50 [40] was 804 nM, the TGI [40] was 16.4 µM and the GI50 [41] was 2790 nM. It also gave a TGI [41] of 8.36 µM, a GI50 [7] of 5.4 µM and a TGI [7] of 21.3 µM. The GI50 [9] was 83.9 nM, the TGI [9] was 10.7 µM and the GI50 [10] was 7.44 µM. The TGI [10] was 30.8 µM, the GI50 [42] was 922 nM and the TGI [42] was 6.1 µM. For the same molecule, the GI50 [43] was 162 nM, the TGI [43] was 2140 nM and the GI50 [44] was 5.94 µM. The TGI [44] was 27.2 µM, the GI50 [45] was 1180 nM and the TGI [45] was 30.6 µM. It also gave a GI50 [46] of 7.2 µM, a TGI [46] of 22 µM and a GI50 [11] of 1400 nM. The TGI [11] was 10.3 µM, the GI50 [47] was 13.2 µM and the TGI [47] was 28.9 µM. It also gave a GI50 [12] of 1090 nM, a TGI [12] of 21.2 µM and a GI50 [48] of 4.04 µM. The TGI [48] was 9.7 µM, the GI50 [49] was 1540 nM and the TGI [49] was 6.1 µM. The GI50 [13] was 3.39 µM, the TGI [13] was 18.9 µM and the GI50 [50] was 1550 nM. The TGI [50] was 25.6 µM, the GI50 [51] was 1320 nM and the TGI [51] was 18.6 µM. For the same molecule, the GI50 [14] was 3.76 µM, the TGI [14] was 8.51 µM and the GI50 [15] was 12.5 µM. For the same molecule, the TGI [15] was 27 µM, the GI50 [52] was 14.8 µM and the TGI [52] was 30.5 µM. It also gave a GI50 [53] of 8.35 µM, a TGI [53] of 22.1 µM and a GI50 [54] of 12.5 µM. It also gave a TGI [54] of 28.9 µM, a GI50 [55] of 1320 nM and a TGI [55] of 19.9 µM. It also gave a GI50 [16] of 1520 nM, a TGI [16] of 10.1 µM and a GI50 [17] of 9.55 µM. It also gave a TGI [17] of 25.8 µM, a GI50 [56] of 31.1 nM and a TGI [56] greater than 34.3 µM. The GI50 [18] was 237 nM, the TGI [18] was 3.9 µM and the GI50 [19] was 17.3 µM. It also gave a TGI [19] of 45.6 µM, a GI50 [57] of 8.94 µM and a TGI [57] of 23 µM. It also gave a GI50 [58] of 3000 nM, a TGI [58] of 7.37 µM and a GI50 [20] of 17 µM. It also gave a TGI [20] of 32.9 µM, a GI50 [21] of 7.69 µM and a TGI [21] of 28.1 µM. The GI50 [59] was 3.03 µM and the TGI [59] was 21.3 µM.
